# From patent publication US8076352B2, “Administration of carboline derivatives useful in the treatment of cancer and other diseases” (PTC Therapeutics, Inc., priority 2004, dated 2011)
# Tested on: hypoxia-inducible endogenous VEGF expression in HeLa cells
# Assay: Hypoxia-inducible endogenous VEGF expression, VEGF ELISA of conditioned media (dose-response EC50)
# Type: cell-based
# Outline: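 Secreted VEGF was quantified by ELISA against a per-assay standard curve after HeLa cells spent 24-48 h in 1% O2, 5% CO2, N2 balance with or without compound. Across a series of, e.g., seven concentrations, percentage inhibition (max 100%, min 0%) gave EC50 and CC50 values.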
# [1] = Homo sapiens, HeLa cells, hypoxic conditions (1% O2)
# [2] = Homo sapiens, HeLa cells under hypoxic conditions
# [3] = Homo sapiens, HeLa cells, hypoxic conditions (1% O2, 5% CO2)
# [4] = HeLa cells under hypoxic conditions
# [5] = HeLa cells, hypoxic conditions (1% O2)
EC50 [1] [nM],EC50 [2] [nM],SMILES,further results
40 to 200,–,O=C(Oc1ccccc1Cl)N1CCc2c([nH]c3ccc(Cl)cc23)C1c1ccc(C(F)(F)F)cc1 (stereo not shown) [Compound 594],–
–,< 8,CCOC(=O)N1CCc2c([nH]c3ccc(Br)cc23)C1c1ccccc1 (stereo not shown) [Compound 27],–
–,> 1000,COc1ccccc1C1NCCc2c1[nH]c1ccc(Cl)cc21 (stereo not shown) [Compound 301],–
–,> 1000,COc1ccc(C2c3[nH]c4ccc(C)cc4c3CCN2c2cnccn2)cc1 (stereo not shown) [Compound 343],–
–,–,O=C(Oc1ccc(Cl)cc1)N1CCc2c([nH]c3ccc(Cl)cc23)C1c1ccc(OCCn2ccnn2)cc1 (stereo not shown) [Compound 839],EC50 [3]: 8 to 40 nM
40 to 200,–,CCOC(=O)N1CCc2c([nH]c3ccc(Cl)cc23)C1c1coc2ccccc2c1=O (stereo not shown) [Compound 499],–
–,> 1000,c1ccc(COc2ccc3[nH]c4c(c3c2)CCNC4c2ccccc2)cc1 (stereo not shown) [Compound 303],–
–,200 to 1000,COc1ccc(C2c3[nH]c4ccc(Cl)cc4c3CCN2C(=O)NC(C)C)cc1 (stereo not shown) [Compound 177],–
< 8,–,COCCOCCOc1ccc(C2c3[nH]c4ccc(Cl)cc4c3CCN2C(=O)Oc2ccccc2)cc1 (stereo not shown) [Compound 670],–
–,> 1000,O=[N+]([O-])c1cccc(C2NCCc3c2[nH]c2ccc(Cl)cc32)c1 (stereo not shown) [Compound 239],–
–,8 to 40,O=C(OCCCl)N1CCc2c([nH]c3ccc(Cl)cc23)C1c1ccccc1 (stereo not shown) [Compound 114],–
200 to 1000,–,O=C(Oc1ccc(Cl)cc1)N1CCc2c([nH]c3ccc(Cl)cc23)C1c1ccc(OCCO)cc1 (stereo not shown) [Compound 571],–
–,–,O=C(Oc1ccc(F)cc1)N1CCc2c([nH]c3ccc(Cl)cc23)C1c1ccc(OCC(O)Cn2ccnc2)cc1 (stereo not shown) [Compound 922],EC50 [3]: < 8 nM
–,< 8,CCOC(=O)N1CCc2c([nH]c3ccc(Cl)cc23)C1c1ccc(F)c(F)c1 (stereo not shown) [Compound 39],–
–,8 to 40,CCOC(=O)N1CCc2c([nH]c3ccc(Cl)cc23)C1c1cccc(C)c1 (stereo not shown) [Compound 109],–
–,–,COCCN(C)CCCOc1ccc(C2c3[nH]c4ccc(Cl)cc4c3CCN2C(=O)Oc2ccc(F)cc2)cc1 (stereo not shown) [Compound 992],EC50 [3]: 40 to 200 nM
–,–,O=C(Oc1ccccc1Cl)N1CCc2c([nH]c3ccc(Cl)cc23)C1c1ccc(OCCCn2ccnc2)cc1 (stereo not shown) [Compound 934],EC50 [3]: < 8 nM
–,> 1000,Cc1cccc2c3c([nH]c12)C(c1cccc(Br)c1)NCC3 (stereo not shown) [Compound 305],–
–,40 to 200,O=C(NC1CCCCC1)N1CCc2c([nH]c3ccc(Br)cc23)C1c1cccc(Cl)c1 (stereo not shown) [Compound 140],–
40 to 200,–,O=C(Oc1ccc(Cl)cc1)Oc1ccc(C2c3[nH]c4ccc(Cl)cc4c3CCN2C(=O)Oc2ccc(Cl)cc2)cc1 (stereo not shown) [Compound 578],–
–,> 1000,CC(C)(C)OC(=O)N[C@@H](Cc1ccccc1)C(=O)N1CCc2c([nH]c3ccc(Cl)cc23)C1c1ccccc1 (stereo partly shown) [Compound 233],–
40 to 200,–,CCOC(=O)N1CCc2c([nH]c3ccc(Cl)cc23)C1C1CC=CCC1 (stereo not shown) [Compound 504],–
–,> 1000,Oc1ccc(C2NCCc3c2[nH]c2ccc(Cl)cc32)cc1 (stereo not shown) [Compound 296],–
–,200 to 1000,COc1cccc(C2NCCc3c2[nH]c2ccc(Cl)cc32)c1 (stereo not shown) [Compound 210],–
–,> 1000,Fc1ccc2[nH]c3c(c2c1)CCNC3c1ccc(Br)cc1 (stereo not shown) [Compound 256],–

EC50 [1] [nM],EC50 [2] [nM],SMILES,further results
–,8 to 40,CC(C)OC(=O)N1CCc2c([nH]c3ccc(Cl)cc23)C1c1ccccc1F (stereo not shown) [Compound 105],–
–,< 8,O=C(Oc1ccc(Cl)cc1)N1CCc2c([nH]c3ccc(Cl)cc23)C1c1ccc(OCCCn2cncn2)cc1 (stereo not shown) [Compound 391],–
40 to 200,–,COC(=O)C(=O)N1CCc2c([nH]c3ccc(Cl)cc23)C1c1ccc(OC)cc1 (stereo not shown) [Compound 485],–
–,–,CCN(CC)CC(O)COc1ccc(C2c3[nH]c4ccc(Cl)cc4c3CCN2C(=O)Oc2ccc(Cl)cc2)cc1 (stereo not shown) [Compound 938],EC50 [3]: < 8 nM
< 8,–,O=C(Oc1ccc(F)cc1)N1CCc2c([nH]c3ccc(Cl)cc23)C1c1ccc(OCCCCn2ccnc2)cc1 (stereo not shown) [Compound 742],–
–,200 to 1000,COc1ccc(NC(=O)N2CCc3c([nH]c4ccc(Cl)cc34)C2c2ccc(OC)cc2)cc1 (stereo not shown) [Compound 186],–
–,8 to 40,ON1CCc2c([nH]c3ccc(Br)cc23)C1c1ccc(Cl)cc1 (stereo not shown) [Compound 81],–
–,–,COCCOc1ccc(C2c3[nH]c4ccc(Cl)cc4c3CCN2C(=O)Oc2ccc(F)cc2)cc1 (stereo not shown) [Compound 388],EC50 [4]: < 8 nM
–,200 to 1000,COCC(=O)N1CCc2c([nH]c3ccc(Br)cc23)C1c1ccc(OC)cc1 (stereo not shown) [Compound 204],–
–,200 to 1000,CCC(C)NC(=S)N1CCc2c([nH]c3ccc(Cl)cc23)C1c1ccc(C(C)C)cc1 (stereo not shown) [Compound 336],–
200 to 1000,–,CCOC(=O)N1CCc2c([nH]c3ccc(Cl)cc23)C1c1cccc(C(=O)NCCOC)c1 (stereo not shown) [Compound 556],–
–,40 to 200,CCOC(=O)N1CCc2c([nH]c3ccc(Cl)cc23)C1C1CCCCC1 (stereo not shown) [Compound 145],–
–,< 8,COc1ccc(C2c3[nH]c4ccc(Br)cc4c3CCN2C(=O)Oc2ccc(Cl)cc2)cc1 (stereo not shown) [Compound 355],–
–,< 8,CCOC(=O)N1CCc2c([nH]c3ccc(Cl)cc23)C1c1ccc(F)cc1 (stereo not shown) [Compound 23],–
–,< 8,CCOC(=O)N1CCc2c([nH]c3ccc(Cl)cc23)C1c1cccc(C(F)(F)F)c1 (stereo not shown) [Compound 37],–
–,40 to 200,CCNC(=S)N1CCc2c([nH]c3ccc(Cl)cc23)C1c1ccc(OC)cc1 (stereo not shown) [Compound 146],–
–,40 to 200,COc1ccc(C2c3[nH]c4ccc(C)cc4c3CCN2c2ncccn2)cc1 (stereo not shown) [Compound 342],–
–,40 to 200,COc1ccc(C2c3[nH]c4ccc(Cl)cc4c3CCN2C(=O)c2ccc(F)c(F)c2F)cc1 (stereo not shown) [Compound 373],–
–,200 to 1000,COc1ccc(C2c3[nH]c4ccc(Cl)cc4c3CCN2C(=O)C(C)Oc2ccccc2)cc1 (stereo not shown) [Compound 375],–
–,–,O=C(Oc1ccc(Cl)cc1)N1CCc2c([nH]c3ccc(Cl)cc23)C1c1ccc(S(=O)(=O)N2CCOCC2)cc1 (stereo not shown) [Compound 450],EC50 [5]: 8 to 40 nM
–,–,Cc1cnc(NCCOc2ccc(C3c4[nH]c5ccc(Cl)cc5c4CCN3C(=O)Oc3ccc(Cl)cc3)cc2)s1 (stereo not shown) [#842],EC50 [3]: < 8 nM
–,40 to 200,Cc1ccc(C2NCCc3c2[nH]c2ccc(Br)cc32)cc1 (stereo not shown) [Compound 156],–
8 to 40,–,O=C(Oc1ccc([N+](=O)[O-])cc1)N1CCc2c([nH]c3ccc(Cl)cc23)C1c1ccc(OCC(O)CO)cc1 (stereo not shown) [Compound 632],–
–,> 1000,CC(C)c1ccc(C2c3[nH]c4ccc(Cl)cc4c3CCN2C(=O)OCCF)cc1 (stereo not shown) [Compound 330],–
–,–,CC(C)(C)OC(=O)N1CCC(COc2ccc(C3c4[nH]c5ccc(Cl)cc5c4CCN3C(=O)Oc3ccc(Cl)cc3)cc2)CC1 (stereo not shown) [Compound 845],EC50 [3]: 40 to 200 nM

EC50 [1] [nM],EC50 [2] [nM],SMILES,further results
–,–,O=C(Oc1ccc(Cl)cc1)N1CCc2c([nH]c3ccc(Cl)cc23)C1c1ccc(OCCCN2CCSCC2)cc1 (stereo not shown) [Compound 933],EC50 [3]: < 8 nM
< 8,–,CCOC(=O)N1CCc2c([nH]c3ccc(Br)cc23)C1c1ccc(C(=O)NCCOC)cc1 (stereo not shown) [Compound 438],–
–,8 to 40,CCCOC(=O)N1CCc2c([nH]c3ccc(Cl)cc23)C1c1ccccc1 (stereo not shown) [Compound 94],–
–,< 8,COc1ccc(C2c3[nH]c4ccc(Cl)cc4c3CCN2C(=O)OCC(C)C)cc1 (stereo not shown) [Compound 30],–
–,–,CS(=O)(=O)c1ccc(C2c3[nH]c4ccc(Cl)cc4c3CCN2C(=O)N2CCOCC2)cc1 (stereo not shown) [Compound 361],EC50 [4]: 8 to 40 nM
–,–,O=C(Oc1ccc(Cl)cc1)N1CCc2c([nH]c3ccc(Cl)cc23)C1c1ccc(OCCCN2CCN(CCO)CC2)cc1 (stereo not shown) [Compound 942],EC50 [3]: 8 to 40 nM
–,8 to 40,COC(=O)N1CCc2c([nH]c3ccc(Cl)cc23)C1c1cccc(F)c1F (stereo not shown) [Compound 53],–
8 to 40,–,COC(=O)c1ccc(C2c3[nH]c4ccc(Cl)cc4c3CCN2C(=O)Oc2ccccc2Cl)cc1 (stereo not shown) [Compound 590],–
8 to 40,–,COCCOCCOc1ccc(C2c3[nH]c4ccc(Cl)cc4c3CCN2C(=O)Oc2ccc(C)cc2)cc1 (stereo not shown) [Compound 677],–
8 to 40,–,CCOC(=O)N1CCc2c([nH]c3ccc(Cl)cc23)C1c1ccc(C(=O)N2CCN(CCOC)CC2)cc1 (stereo not shown) [Compound 469],–
–,–,O=C(Oc1ccc(F)cc1)N1CCc2c([nH]c3ccc(Br)cc23)C1c1ccc(C(F)(F)F)cc1 (stereo not shown) [Compound 426],EC50 [5]: < 8 nM
–,< 8,CCOC(=O)N1CCc2c([nH]c3ccc(Br)cc23)C1c1cccc(Cl)c1 (stereo not shown) [Compound 16],–
–,> 1000,CCOC(=O)N1Cc2c([nH]c3ccc(Cl)cc23)C(c2ccccc2)C1 (stereo not shown) [Compound 250],–
–,200 to 1000,Cc1ccc(NC(=S)N2CCc3c([nH]c4ccc(Cl)cc34)C2c2ccc(C(C)C)cc2)cc1 (stereo not shown) [Compound 338],–
< 8,–,O=C(Oc1ccc(Cl)cc1)N1CCc2c([nH]c3ccc(Cl)cc23)C1c1ccc(OCCCCCCn2cncn2)cc1 (stereo not shown) [Compound 791],–
< 8,–,O=C(Oc1ccc(Cl)cc1)N1CCc2c([nH]c3ccc(Cl)cc23)C1c1ccc(NC2CCOCC2)cc1 (stereo not shown) [Compound 440],–
40 to 200,–,CCOC(=O)N1CCc2c([nH]c3ccc(Cl)cc23)C1c1cnc(NC)nc1 (stereo not shown) [Compound 506],–
< 8,–,COc1ccc(C2c3[nH]c4ccc(Cl)cc4c3CCN2C(=O)Oc2ccc(F)cc2)cc1 (stereo not shown) [Compound 401],–
–,< 8,CCOC(=O)N1CCc2c([nH]c3ccc(Cl)cc23)C1c1ccc(C(F)(F)F)cc1 (stereo not shown) [Compound 31],–
–,200 to 1000,Fc1cccc(C2NCCc3c2[nH]c2ccc(Cl)cc32)c1 (stereo not shown) [Compound 203],–
< 8,–,O=C(Oc1ccc(F)cc1)N1CCc2c([nH]c3ccc(Cl)cc23)C1c1ccc(OCCCCCl)cc1 (stereo not shown) [Compound 719],–
–,< 8,COC(=O)N1CCc2c([nH]c3ccc(Cl)cc23)C1c1ccc(C(C)C)cc1 (stereo not shown) [Compound 34],–
< 8,–,O=C(Oc1ccc(Cl)cc1)N1CCc2c([nH]c3ccc(Cl)cc23)C1c1ccc(OCCCCn2cncn2)cc1 (stereo not shown) [Compound 706],–

SMILES,EC50 [1] [nM],EC50 [2] [nM],further results
O=C(Oc1ccc(F)cc1)N1CCc2c([nH]c3ccc(Cl)cc23)C1c1ccc(OCCCCCCN2CCCCC2)cc1 (stereo not shown) [Compound 777],< 8,–,–
COCCCNCCCCOc1ccc(C2c3[nH]c4ccc(Cl)cc4c3CCN2C(=O)Oc2ccc(F)cc2)cc1 (stereo not shown) [Compound 737],8 to 40,–,–
O=C(Oc1ccc(F)cc1)N1CCc2c([nH]c3ccc(Cl)cc23)C1c1ccc(OCCCCNCCCn2ccnc2)cc1 (stereo not shown) [Compound 741],40 to 200,–,–
